Like-named read-outs stand apart in the source and are kept apart here.
Tests used:
Experiment in all cases: Ras GTP binding domain inhibition assay (Cy3-GTP/Cy5-GTP competition)
[1] = biological target: T1, KRas G12D mutant (Homo sapiens, UniProt P01116, G12D); details: 20 μM
T1 construct: fused on or other part: His tag, used for capture on nickel-coated plates
Procedure: (§1) The following method was developed as specific assay for the following proteins: KRas wild type, KRas Q61H mutant, KRas G12C mutant, KRas G12D mutant, HRas wild type, Rac-1, and Rho-A.
(§2) • 25 mM Tris-HCl, pH 7.4 • 27 mM KCl • 137 mM NaCl • 1 mM MgCl2 • 1 mM DTT
(§3) • 50 mM Tris-HCl, pH 7.0 • 1 mM MgCl2 • 1 mM DTT
(§4) The small GTPases proteins: KRas wild type. KRas Q61H mutant, KRas G12C mutant, KRas G12D mutants, HRas wild type, Rac-1, and Rho-A were expressed as His-tagged proteins. In addition, the Guanosine nucleotide Exchange Factor (GEF) Sos protein (residues 556-1049) was expressed as a His-tagged protein. In cells, the guanine nucleotide exchange factor Sos protein promotes activation of Ras proteins by stimulating an exchange of GDP for GTP. The inclusion of Sos to the Ras GTP binding domain inhibition assay may be considered as an alternative representation of physiological cellular conditions for evaluating the inhibitory activity of some of the tested small molecules.
(§5) For the assay, all purified small GTPases proteins were diluted in Buffer-I or Buffer-II to a final concentration of 10-30 μg/mL. 200 μL of each diluted protein was added to a nickel-coated 96-well plate and incubated overnight at 4° C. Then the protein solution was discarded and 200 μL of Buffer-I or Buffer-II was added to each well in the presence of 1% DMSO. Compounds to be tested were added to the protein-coated wells at final concentration of 20 μM, and incubated for 3 hours at room temperature with and without […] of Sos added to the final hour of the incubation. When performing IC50 measurements a serial dilution of all tested concentrations was added. Then Cy3-GTP or Cy5-GTP was added to each well to a final concentration of 100 nM. The labeled GTP was incubated for 45 minutes at room temperature. Following GTP incubation, wells were washed 3× in Buffer-I or Buffer-II and 200 μL of Buffer-I or Buffer-II was added to each well. Following washes, the amount of bound labeled-GTP was measured using a SpectraMax M3 (Molecular Devices).

[2] = system: KRas G12C mutant; set-up: species or system human; details: 20 μM
Procedure: as §1, §2, §3, §4, §5

[3] = system: KRas wild type; set-up: species or system human; details: 20 μM; for KRas wild type: % inh.: without SOS; for KRas wild type % inh.: without SOS (Table 7A)
Procedure: as §1, §2, §3, §4, §5

[4] = system: KRas Q61H mutant; set-up: species or system human; details: 20 μM
Procedure: as §1, §2, §3, §4, §5

[5] = with SOS, read-out: KRas G-12D mutant + SOS: % inh.
[6] = without SOS, read-out: KRas G12D mutant: % inh.
[7] = with SOS (Table 7A), read-out: KRas G12D mutant + SOS: % inh.
[8] = without SOS (Table 7A), read-out: KRas G12D mutant: % inh.

| Structure (SMILES) | inhibition at 20 µM [1, 5] [%] | inhibition at 20 µM [1, 6] [%] | KRas G12C mutant + SOS: % inh. ([2]; with SOS) | KRas G12C mutant: % inh. ([2]; without SOS) | KRas wild type + SOS: % inh. ([3]; with SOS) | KRas wild type: % inh. [3] | KRas Q61H mutant + SOS: % inh. ([4]; with SOS) | KRas Q61H mutant: % inh. ([4]; without SOS) | inhibition at 20 µM [1, 7] [%] | inhibition at 20 µM [1, 8] [%] | KRas G12C mutant + SOS: % inh. ([2]; with SOS (Table 7A)) | KRas G12C mutant: % inh. ([2]; without SOS (Table 7A)) | KRas wild type + SOS: % inh. ([3]; with SOS (Table 7A)) | KRas wild type % inh. [3] | KRas Q61H mutant + SOS: % inh. ([4]; with SOS (Table 7A)) | KRas Q61H mutant: % inh. ([4]; without SOS (Table 7A)) |
| --- | --- | --- | --- | --- | --- | --- | --- | --- | --- | --- | --- | --- | --- | --- | --- | --- |
| COC1CCN(c2nc(-c3nccn3C)nc3sc(-c4ccnn4C)c(-c4ccccc4)c23)C1.Cl (stereo not drawn) | 51 to 75 | 51 to 75 | C (51-75% inhibition) | C (51-75% inhibition) | C (51-75% inhibition) | B (26-50% inhibition) | C (51-75% inhibition) | B (26-50% inhibition) | – | – | – | – | – | – | – | – |
| COc1cc(-c2sc3nc(-c4nccn4C)nc(N4CCC(OC)C4)c3c2-c2ccccc2)ccn1.Cl (stereo not drawn) | 51 to 75 | 51 to 75 | D (76-100% inhibition) | C (51-75% inhibition) | C (51-75% inhibition) | C (51-75% inhibition) | C (51-75% inhibition) | C (51-75% inhibition) | – | – | – | – | – | – | – | – |
| CO[C@H]1C[C@@H](Nc2nc(-c3nccn3C)nc3sc(-c4ccn(C)n4)c(-c4ccccc4)c23)C1.Cl | – | – | – | – | – | – | – | – | 51 to 75 | 26 to 50 | D (76-100% inhibition) | C (51-75% inhibition) | D (76-100% inhibition) | C (51-75% inhibition) | D (76-100% inhibition) | C (51-75% inhibition) |
| Cn1ccc(-c2sc3nc(-c4nccn4C)nc(N[C@@H]4CC[C@H](O)C4)c3c2-c2ccccc2)n1 (racemic) [drawing 909] | – | – | – | – | – | – | – | – | 0 | 0 | A (1-25% inhibition) | A (1-25% inhibition) | A (1-25% inhibition) | A (1-25% inhibition) | 0 (0% inhibition) | A (1-25% inhibition) |
| COCCn1cc(Nc2nc(-c3ccccn3)nc(OC)c2OC)cn1 [drawing 793] | 1 to 25 | 1 to 25 | A (1-25% inhibition) | A (1-25% inhibition) | A (1-25% inhibition) | 0 (0% inhibition) | A (1-25% inhibition) | 0 (0% inhibition) | – | – | – | – | – | – | – | – |
| COc1nc(-c2ccccn2)nc(Nc2cnn(C)c2)c1OC [drawing 794] | 0 | 0 | A (1-25% inhibition) | 0 (0% inhibition) | 0 (0% inhibition) | A (1-25% inhibition) | A (1-25% inhibition) | 0 (0% inhibition) | – | – | – | – | – | – | – | – |
| COCCNc1nc(-c2cn(C)cn2)nc2sc(-c3cc(OC)ccc3Cl)c(-c3ccc(OC)cc3)c12 [drawing 795] | 26 to 50 | 26 to 50 | D (76-100% inhibition) | B (26-50% inhibition) | D (76-100% inhibition) | B (26-50% inhibition) | D (76-100% inhibition) | B (26-50% inhibition) | – | – | – | – | – | – | – | – |
| COC1CCN(c2nc(-c3nccn3C)nn3cc(-c4ccccc4)c(-c4ccccc4)c23)C1 (stereo not drawn) [drawing 796] | 1 to 25 | 26 to 50 | B (26-50% inhibition) | A (1-25% inhibition) | A (1-25% inhibition) | B (26-50% inhibition) | B (26-50% inhibition) | B (26-50% inhibition) | – | – | – | – | – | – | – | – |
| COCCNc1nc(-c2cn(C)cn2)nc2sc(-c3cccc(OC)c3Cl)c(-c3ccc(OC)cc3)c12 [drawing 797] | 26 to 50 | 26 to 50 | D (76-100% inhibition) | B (26-50% inhibition) | D (76-100% inhibition) | C (51-75% inhibition) | D (76-100% inhibition) | C (51-75% inhibition) | – | – | – | – | – | – | – | – |
